Source: patent US5583142A, “Analgesic and nootropic drugs” (priority 1992, dated 1996)
“And” between values parts separate entries of the source, which are not always exact repeats. Equal values may be shown once. Where a name gives a salt, the structure may show the parent alone. Read-outs that look alike come from different tables or passages of the source.

Experiments:
[1] = paw-pressure test in rats with a lesion in the nucleus basalis magnocellularis (NBM); assay type: in vivo, rat; conditions: 4 mg/kg i.p.
Description: 3. […] In fact, as known, the magnocellular basal nucleus destruction causes the degeneration of most central cholinergic system.

[2] = mouse acetic acid writhing test; assay type: in vivo; conditions: for efficacy in writhing test, in words / number of writhes / Efficacy as analgesic (Morphine = 100) / percent inhibition: mouse; for Efficacy as analgesic (Morphine = 100) / percent inhibition: writhing; for ED50: mouse writhing
Experimental: (§1) The analgesic action was detected in mouse, rat, guinea pig and dog. The mouse was subjected to hot plate and writhing tests; the rat to tail-flick and paw-pressure tests; the guinea pig to paw-pressure test only; the dog to the test described by Vainio et al. [J. Vet. Pharmacol. Ther., 12, 225-231 (1989)] using an electric stimulation. Consequently, the claimed compounds were tested with pain being induced by stimuli of different nature: thermal (hot plate and tail flick), chemical (writhing by acetic acid), mechanical (paw pressure) and electrical (cutaneous stimulation).
The claimed molecules, chosen as examples, were also assayed in mice by the writhing test (Table 4). The test is meant to evaluate the products capability to prevent mice writhes ensuing abdominal pains caused by i.p. injection of a 0.6% aqueous solution of acetic acid.
Acetic acid solution = 0.6% v/v.

rat paw-pressure test = assay type: in vivo
Experimental: as §1
(§2) As already mentioned, the claimed products were assayed also in rat by the paw-pressure and tail-flick tests.
(§3) Both tests were carried out with the max. doses not impairing the rats normal behaviour. […] The painful stimulus utilized in the paw-pressure test involved the animal consciousness to a much greater extent than the stimulus used in the tail-flick test, in fact, the type and anatomic localization of the latter mainly involved a spinal response.
(§4) Both tests on rats were carried out with the max. doses not altering the behaviour of the treated animals.

[3] = mouse rota-rod test (16 r.p.m.)
Description: All products tested to detect their antinociceptive activity had been previously tested by the rota-rod test to determine their maximum utilizable dose in analgesic tests. In fact, by this test it is possible to determine the highest dose of drug not impairing the normal performance of animals in a test that simultaneously evaluates motor coordination, equilibrium, resistance to fatigue, and muscle strength. This test is meant to evaluate the capability of mice to stay balanced on a rotating rod [cf. Vaught et al., Neuropharmacology, 24 (3) 211-216 (1985)].
The calculated doses were those used in the two analgesic tests on mice.

rat tail-flick test = assay type: in vivo
Experimental: as §1, §2, §3, §4
The test was performed using th

in vivo = conditions: mouse
Description: (§5) Potency, efficacy and toxicity of SM21, PG9 and SM32 in comparison with
(§6) four principal reference analgesic drugs tested in mouse. As analgesic

[4] = assay type: in vivo, mouse; conditions: for ED50 compared with claimed compounds / analgesic efficacy / degree of analgesia compared with claimed compounds: mouse hot plate; for Efficacy as analgesic (Morphine = 100), AUC (Area Under Curve) / Efficacy as analgesic (Morphine = 100), M.E. (Maximum Analgesic Effect): in vivo; for ANALGESIC ACTIVITY (degree of analgesia, latency on hot plate): max. dose not affecting mice behaviour
Experimental: as §1, §5, §6

[5] = 25 mg/kg i.p., 15 min after treatment
[6] = 25 mg/kg i.p., 30 min after treatment
[7] = 25 mg/kg i.p., 45 min after treatment
[8] = 25 mg/kg s.c., 15 min after treatment
[9] = 25 mg/kg s.c., 30 min after treatment
[10] = 25 mg/kg s.c., 45 min after treatment
[11] = mouse, 20 mg/kg i.p., 15 min after treatment
[12] = mouse, 20 mg/kg i.p., 30 min after treatment
[13] = mouse, 20 mg/kg i.p., 45 min after treatment
[14] = mouse, 20 mg/kg s.c., 15 min after treatment
[15] = mouse, 20 mg/kg s.c., 30 min after treatment
[16] = mouse, 20 mg/kg s.c., 45 min after treatment
[17] = 15 mg/kg i.p., 15 min after treatment
[18] = 15 mg/kg i.p., 30 min after treatment
[19] = 15 mg/kg i.p., 45 min after treatment
[20] = 100 mg/kg i.p., 15 min after treatment
[21] = 100 mg/kg i.p., 30 min after treatment
[22] = 100 mg/kg i.p., 45 min after treatment

NCC(CC(=O)O)c1ccc(Cl)cc1 (stereo not shown) [Baclofen, reference compound]
paw-pressure ([1]; lesioned (NBM) rats, 15 min after treatment): 117.4 ± 6.4 g | paw-pressure ([1]; lesioned (NBM) rats, 30 min after treatment): 137.9 ± 4.8 g | paw-pressure ([1]; lesioned (NBM) rats, 45 min after treatment): 131.8 ± 5.7 g | paw-pressure ([1]; sham rats, 15 min after treatment): 108.7 ± 6.6 g | paw-pressure ([1]; sham rats, 30 min after treatment): 132.8 ± 5.9 g | paw-pressure ([1]; sham rats, 45 min after treatment): 124.7 ± 5.8 g

CN(C)CCCN1c2ccccc2CCc2ccc(Cl)cc21 [Clomipramine HCl, reference compound]
efficacy in writhing test, in words [2]: far less efficacious | number of writhes ([2]; 20 mg/kg s.c.): 18.2 ± 2.1 | Efficacy as analgesic (Morphine = 100) ([2]; 20 mg/kg s.c.): 63 | percent inhibition ([2]; 20 mg/kg s.c.): 46.8% | ED50 ([2]; sc): 9.7 mg/kg and 27.6 µmol/kg | activity in paw-pressure test, in words (rat paw-pressure test): almost equivalent analgesia | paw-pressure (rat paw-pressure test; [5]): 85.0 ± 6.8 g | paw-pressure (rat paw-pressure test; [6]): 99.0 ± 6.6 g | paw-pressure (rat paw-pressure test; [7]): 91.7 ± 7.4 g | rota-rod performance (number of falls in 30 s) [3, 8]: 2.4 ± 0.5 falls in 30 s | rota-rod performance (number of falls in 30 s) [3, 9]: 2.1 ± 0.6 falls in 30 s | rota-rod performance (number of falls in 30 s) [3, 10]: 2.1 ± 0.6 falls in 30 s | rota-rod performance (number of falls in 30 s) ([3]; 45 mg/kg s.c., 15 min after treatment): 2.8 ± 0.4 falls in 30 s | rota-rod performance (number of falls in 30 s) ([3]; 45 mg/kg s.c., 30 min after treatment): 3.6 ± 0.4 falls in 30 s | rota-rod performance (number of falls in 30 s) ([3]; 45 mg/kg s.c., 45 min after treatment): 3.5 ± 0.6 falls in 30 s | rota-rod performance (number of falls in 30 s) ([3]; 50 mg/kg s.c., 15 min after treatment): 1.8 ± 0.4 falls in 30 s | rota-rod performance (number of falls in 30 s) ([3]; 50 mg/kg s.c., 30 min after treatment): 1.8 ± 0.4 falls in 30 s | rota-rod performance (number of falls in 30 s) ([3]; 50 mg/kg s.c., 45 min after treatment): 1.5 ± 0.4 falls in 30 s | rota-rod performance (number of falls in 30 s) ([3]; 60 mg/kg s.c., 15 min after treatment): 1.5 ± 0.4 falls in 30 s | rota-rod performance (number of falls in 30 s) ([3]; 60 mg/kg s.c., 30 min after treatment): 2.6 ± 0.3 falls in 30 s | rota-rod performance (number of falls in 30 s) ([3]; 60 mg/kg s.c., 45 min after treatment): 3.1 ± 0.5 falls in 30 s | NOAEL ([3]; mouse, in vivo, sc): 20.2 mg/kg | activity in tail-flick test, in words (rat tail-flick test): inactive | tail-flick (rat tail-flick test; [5]): 2.9 ± 0.2 s | tail-flick (rat tail-flick test; [6]): 2.6 ± 0.1 s | tail-flick (rat tail-flick test; [7]): 2.6 ± 0.2 s | LD50 (in vivo; iv): 44 mg/kg and 125 µmol/kg | ED50 compared with claimed compounds [4]: equivalent to those of the claimed compounds | analgesic efficacy / degree of analgesia compared with claimed compounds [4]: much lower degree of analgesia | Efficacy as analgesic (Morphine = 100), AUC (Area Under Curve) ([4]; mouse): 17 | Efficacy as analgesic (Morphine = 100), M.E. (Maximum Analgesic Effect) ([4]; mouse): 19 | hot-plate latency [4, 11]: 24.8 ± 2.8 s | hot-plate latency [4, 12]: 25.2 ± 2.2 s | hot-plate latency [4, 13]: 23.2 ± 2.1 s | hot-plate latency [4, 14]: 17.4 ± 1.1 s | hot-plate latency [4, 15]: 19.3 ± 0.9 s | hot-plate latency [4, 16]: 16.5 ± 0.8 s

CN(C)CCOC(c1ccccc1)c1ccccc1 [Diphenhydramine, reference compound]
efficacy in writhing test, in words [2]: far less efficacious | number of writhes ([2]; 20 mg/kg s.c.): 24.6 ± 2.4 | Efficacy as analgesic (Morphine = 100) ([2]; 20 mg/kg s.c.): 38 | percent inhibition ([2]; 20 mg/kg s.c.): 28.1% | ED50 ([2]; sc): 7.8 mg/kg and 30.5 µmol/kg | activity in paw-pressure test, in words (rat paw-pressure test): inactive | paw-pressure (rat paw-pressure test; [17]): 72.6 ± 6.8 g | paw-pressure (rat paw-pressure test; [18]): 70.0 ± 5.4 g | paw-pressure (rat paw-pressure test; [19]): 68.0 ± 6.6 g | rota-rod performance (number of falls in 30 s) [3, 8]: 2.0 ± 0.5 falls in 30 s | rota-rod performance (number of falls in 30 s) [3, 9]: 1.0 ± 0.3 falls in 30 s | rota-rod performance (number of falls in 30 s) [3, 10]: 1.4 ± 0.4 falls in 30 s | rota-rod performance (number of falls in 30 s) ([3]; 30 mg/kg s.c., 15 min after treatment): 2.1 ± 0.4 falls in 30 s | rota-rod performance (number of falls in 30 s) ([3]; 30 mg/kg s.c., 30 min after treatment): 1.5 ± 0.3 falls in 30 s | rota-rod performance (number of falls in 30 s) ([3]; 30 mg/kg s.c., 45 min after treatment): 1.5 ± 0.4 falls in 30 s | rota-rod performance (number of falls in 30 s) ([3]; 40 mg/kg s.c., 15 min after treatment): 4.3 ± 0.4 falls in 30 s | rota-rod performance (number of falls in 30 s) ([3]; 40 mg/kg s.c., 30 min after treatment): 3.1 ± 0.4 falls in 30 s | rota-rod performance (number of falls in 30 s) ([3]; 40 mg/kg s.c., 45 min after treatment): 2.3 ± 0.4 falls in 30 s | activity in tail-flick test, in words (rat tail-flick test): inactive | tail-flick (rat tail-flick test; [17]): 2.9 ± 0.2 s | tail-flick (rat tail-flick test; [18]): 2.5 ± 0.2 s | tail-flick (rat tail-flick test; [19]): 2.5 ± 0.1 s | ED50 compared with claimed compounds [4]: equivalent to those of the claimed compounds | analgesic efficacy / degree of analgesia compared with claimed compounds [4]: much lower degree of analgesia | Efficacy as analgesic (Morphine = 100), M.E. (Maximum Analgesic Effect) ([4]; mouse): 43 | hot-plate latency [4, 11]: 21.6 ± 2.5 s | hot-plate latency [4, 12]: 17.7 ± 1.6 s | hot-plate latency [4, 13]: 17.1 ± 1.8 s | hot-plate latency [4, 14]: 23.6 ± 2.6 s | hot-plate latency [4, 15]: 18.0 ± 1.4 s | hot-plate latency [4, 16]: 18.7 ± 2.1 s

O=C(c1ccccc1)c1ccc2n1CCC2C(=O)O (stereo not shown) [Ketorolac Trometamine]
ED50 ([2]; ip): 8.3 mg/kg and 22 µmol/kg | efficacy in writhing test, in words [2]: higher than by morphine | number of writhes ([2]; 10 mg/kg i.p.): 6.3 ± 1.4 | number of writhes ([2]; 175 mg/kg i.p.): 0.3 ± 0.3 | Efficacy as analgesic (Morphine = 100) ([2]; 10 mg/kg i.p.): 110 | percent inhibition ([2]; 10 mg/kg i.p.): 81.6% | Efficacy as analgesic (Morphine = 100) ([2]; 175 mg/kg i.p.): 133 | percent inhibition ([2]; 175 mg/kg i.p.): 99.1% | activity in paw-pressure test, in words (rat paw-pressure test): almost equivalent analgesia | paw-pressure (rat paw-pressure test; [20]): 59.3 ± 5.6 g | paw-pressure (rat paw-pressure test; [21]): 97.4 ± 6.2 g | paw-pressure (rat paw-pressure test; [22]): 74.6 ± 5.8 g | activity in tail-flick test, in words (rat tail-flick test): inactive | tail-flick (rat tail-flick test; [20]): 3.3 ± 0.2 s | tail-flick (rat tail-flick test; [21]): 3.2 ± 0.2 s | tail-flick (rat tail-flick test; [22]): 2.6 ± 0.3 s | LD50 (in vivo; ip): 1260 µmol/kg | Efficacy as analgesic (Morphine = 100), AUC (Area Under Curve) ([4]; mouse): 46 | Efficacy as analgesic (Morphine = 100), M.E. (Maximum Analgesic Effect) ([4]; mouse): 55 | hot-plate latency ([4]; mouse, 175 mg/kg i.p., 15 min after treatment): 26.5 ± 3.4 s | hot-plate latency ([4]; mouse, 175 mg/kg i.p., 30 min after treatment): 19.6 ± 1.4 s | hot-plate latency ([4]; mouse, 175 mg/kg i.p., 45 min after treatment): 17.7 ± 1.5 s | hot-plate latency ([4]; mouse, 175 mg/kg s.c., 15 min after treatment): 16.3 ± 1.1 s | hot-plate latency ([4]; mouse, 175 mg/kg s.c., 30 min after treatment): 15.0 ± 1.2 s | hot-plate latency ([4]; mouse, 175 mg/kg s.c., 45 min after treatment): 15.1 ± 1.6 s | activity on hot plate, s.c. administration ([4]; mouse, s.c.): inactive

CC(Nc1ccccc1)C(=O)OC1CC2CCC(C1)N2C (stereo not shown) [SS29]
ANALGESIC ACTIVITY (degree of analgesia, latency on hot plate) [4]: +++ (Latency under or equal to 35" +++-)

CC(Oc1ccc(Cl)cc1)C(=O)N[C@H]1C[C@H]2CC[C@@H](C1)N2C (stereo partly drawn) [SS-16, N-(3α-tropanyl)-2-(p-chlorophenoxy)-propionamide]
ANALGESIC ACTIVITY (degree of analgesia, latency on hot plate) [4]: + (Latency under or equal to 25" +-)

CC(Sc1ccc(Cl)cc1)C(=O)O[C@H]1C[C@H]2CC[C@@H](C1)N2C (stereo partly drawn) [SS-20, 3α-Tropanyl 2-(p-chlorophenylthio)propionate]
ANALGESIC ACTIVITY (degree of analgesia, latency on hot plate) [4]: +++ (Latency under or equal to 35" +++-)
